Reference: US20150045424A1, “COMPOSITION USEFUL FOR THE TREATMENT OF TYPE 2 DIABETES” (SIGMA-TAU INDUSTRIE FARMACEUTICHE RIUNITE S.P.A., priority 2007, published 2015)

Assays:
Format in all cases: in vivo, mouse
[1] = test system: C57BL/KsJ db/db mice; assay: Plasma fructosamine levels of db/db mice (indicator of protein glycosylation); conditions: oral twice daily for 25 days, post-absorption (fasting 9 a.m. to 4.30 p.m.), 7.5 hours after last treatment, n=6
Protocol: (§1) The C57BL/KsJ db/db mice used in the experiments were supplied by Jackson Lab (via Ch. River). After 10 days of acclimatisation in standard conditions (22±2 [deg.]C.; 55±15% humidity; 15-20 air changes/hour; 12 hour light-darkness cycle with light from 7 a.m. to 7 p.m.) on a standard 4 RF21 diet (Mucedola), blood samples were taken in post-absorption conditions (fasting from 8.30 a.m. to 4.30 p.m.) from the caudal vein with the aid of a Jelco 22G catheter (Johnson and Johnson). Glucose, insulin, triglyceride, cholesterol, free fatty acid and urea levels were checked in the plasma to ensure well-matched distribution of the mice in the treatment groups.
(§2) The mice were divided into groups and treated orally twice daily with:
(§3) Simvastatin 100 mg/kg; L-carnitine inner salt 400 mg/kg; acetyl L-carnitine HCl 592 mg/kg (equimolar amount respect to L-carnitine); propionyl L-carnitine HCl 627 mg/kg (equimolar amount respect to L-carnitine); L-carnitine inner salt 400 mg/kg+Simvastatin 100 mg/kg; acetyl L-carnitine HCl 592 mg/kg+Simvastatin 100 mg/kg; propionyl L-carnitine HCl 627 mg/kg+Simvastatin 100 mg/kg.
(§4) In the course of the experiment, serum glucose levels, glucose tolerance (OGTT), a number of lipid status variables and weight gain were monitored.

[2] = test system: C57BL/KsJ db/db mice; assay: Plasma HDL-cholesterol levels of db/db mice; conditions: oral twice daily for 25 days, post-absorption (fasting 9 a.m. to 4.30 p.m.), 7.5 hours after last treatment, n=6
Protocol: as §1, §2, §3, §4

[3] = test system: C57BL/KsJ db/db mice; assay: Oral glucose tolerance test (OGTT) in db/db mice; conditions: oral twice daily for 18 days, OGTT glucose 3 g/kg, fasted 18 hours, 5 hours after last treatment, n=6
Protocol: as §1, §2, §3, §4

[4] = test system: C57BL/KsJ db/db mice; assay: Blood glucose levels of db/db mice (feeding, post-absorption, fasting); conditions: n=6
Source text: A much used genetically diabetic mouse model is the C57BL/KsJ db/db mouse.
The genetic basis of this model is a defect in the leptin receptor gene which gives rise to leptin resistance and leads to hyperphagia, obesity, hyperinsulinaemia and insulin resistance, with subsequent symptoms of insufficient insulin secretion and hyperglycaemia (Kodama et al., Diabetologia 37: 739-744, 1994; Chen et al, Cell 84: 491-495, 1996).
as §1
At the start of treatment, the body weight of the animals was checked and monitoring of the animals' consumption of water and feed was scheduled.
as §2, §3, §4

[5] = test system: C57BL/KsJ db/db mice; assay: Plasma triglyceride levels of db/db mice; conditions: oral twice daily for 25 days, post-absorption (fasting 9 a.m. to 4.30 p.m.), 7.5 hours after last treatment, n=6
Protocol: as §1, §2, §3, §4

[6] = oral twice daily for 12 days, blood sample in feeding condition, approximately 15 hours after last treatment
[7] = oral twice daily for 12 days, post-absorption condition (fasting 9 a.m. to 5 p.m.), 8 hours after last treatment
[8] = oral twice daily for 18 days, fasted for 18 hours, 5 hours after last treatment

Row | Structure (SMILES) | Fructosamine Mean values [1] | HDL-cholesterol Mean values [2] | AUC Glucose (OGTT) Mean values [3] | Glucose Mean values [4, 6] | Glucose Mean values [4, 7] | Glucose Mean values [4, 8] | Triglycerides Mean values [5]
1 | CC(=O)O[C@H](CC(=O)[O-])C[N+](C)(C)C [Acetyl L-carnitine, acetyl L-carnitine] | 0.85 mM | 84.5 mg/dL | 49332.3 u.a. | 468.0 mg/dL | 416.1 mg/dL | 332.0 mg/dL | 85.6 mg/dL
2 | C[N+](C)(C)C[C@H](O)CC(=O)[O-] [L-carnitine] | 0.81 mM | 84.0 mg/dL | 50187.8 u.a. | 470.0 mg/dL | 416.5 mg/dL | 324.8 mg/dL | 85.7 mg/dL
3 | CCC(C)(C)C(=O)O[C@H]1C[C@@H](C)C=C2C=C[C@H](C)[C@H](CC[C@@H]3C[C@@H](O)CC(=O)O3)[C@H]21 [Simvastatin] | 0.76 mM | 74.5 mg/dL | 50973.3 u.a. | 465.0 mg/dL | 418.1 mg/dL | 328.3 mg/dL | 83.6 mg/dL
4 | CCC(=O)O[C@H](CC(=O)[O-])C[N+](C)(C)C [Propionyl L-carnitine, propionyl L-carnitine] | 0.81 mM | 80.9 mg/dL | 49005.5 u.a. | 475.5 mg/dL | 411 mg/dL | 328.6 mg/dL | 86.2 mg/dL
